Reference: patent US20070004720A1, “Use of tyrosine kinase inhibitors for the treatment of inflammatory processes” (priority 2003, published 2007)

test system: cigarette smoke-induced influx of neutrophilic granulocytes into the lung tissue; experiment: Inhibition of the smoke-induced accumulation of granulocytes in the lung tissue (MPO activity); type: in vivo, rats (strain: Sprague-Dawley); details: Rattus norvegicus; male Sprague-Dawley rats, 5 days cigarette smoke exposure, intratracheal dose daily 30 min before smoke, lung tissue MPO, linear regression; read-out: ID50 (dosage which led to a 50% inhibition of the MPO activity)
Source text: Inhibition of the Smoke-Induced Accumulation of Granulocytes in the Lung Tissue Lung indications: Inhibition of the cigarette smoke-induced influx of neutrophilic granulocytes into the lung tissue by the above-mentioned EGF-receptor kinase inhibitor. Male rats (strain: Sprague-Dawley) weighing from 250-300 g were exposed for 5 days to the smoke from 8 cigarettes per day. The animals in the group treated with compound A, anaesthetised with isofluran, were given an intratracheal dose of 0.03 or 0.1 mg/kg of compound A in a volume of 0.05 ml each day 30 min before the start of the exposure to smoke. On the last day of the test the animals were killed 4 hours after the last exposure to smoke and the lung tissue was removed. A sample of 70-200 mg was taken from each lung and placed in a test tube prepared with 1 ml of 0.5% hexadecyltrimethylammonium bromide. The samples were homogenised for 15 sec using an Ultraturrax. The homogenised samples were centrifuged at 15700 g in an Eppendorf bench centrifuge for 5 min at ambient temperature. […] of the supernatant was removed and mixed with […] of phosphate buffer (50 mmol/l) containing 0.197 mg/ml of O-dianisidine dihydrochloride. After 10 minutes' incubation at ambient temperature the absorption was measured with a spectral photometer at a wavelength of 450 nm. The dosage which led to a 50% inhibition of the MPO activity (=ID50) was determined by linear regression. Exposure to cigarette smoke in rats led to an influx of neutrophilic granulocytes into the lung tissue, measured by the content of myeloperoxidase in the tissues, which is specific for neutrophilic granulocytes.

Compound	ED50
COc1cc2ncnc(Nc3ccc(F)c(Cl)c3)c2cc1O[C@H]1CC[C@@H](N(C)C(=O)N2CCN(C)CC2)CC1 [I, 4-[(3-chloro-4-fluoro-phenyl)amino]-6-(cis-4-{N-[(4-methyl-piperazin-1-yl)carbonyl]-N-methyl-amino}-cyclohexan-1-yloxy)-7-methoxy-quinazoline]	0.15 mg/kg
COc1cc2ncnc(Nc3ccc(F)c(Cl)c3)c2cc1O[C@H]1CC[C@@H](NC(C)=O)CC1 [F, 4-[(3-chloro-4-fluoro-phenyl)amino]-6-(cis-4-acetylamino-cyclohexan-1-yloxy)-7-methoxy-quinazoline]	0.015 mg/kg
COc1cc2ncnc(Nc3ccc(F)c(Cl)c3)c2cc1OC1CCN(C(=O)N2CCOCC2)CC1 [A, 4-[(3-chloro-4-fluoro-phenyl)amino]-6-{1-[(morpholin-4-yl)carbonyl]-piperidin-4-yloxy}-7-methoxy-quinazoline]	0.1 mg/kg
COc1cc2ncnc(Nc3ccc(F)c(Cl)c3)c2cc1O[C@H]1CC[C@@H](N(C)S(=O)(=O)N2CCOCC2)CC1 [E, 4-[(3-chloro-4-fluoro-phenyl)amino]-6-(cis-4-{N-[(morpholin-4-yl)sulphonyl]-N-methyl-amino}-cyclohexan-1-yloxy)-7-methoxy-quinazoline]	0.4 mg/kg
C#Cc1cccc(Nc2ncnc3cc(OC)c(OC4CCN(C)CC4)cc23)c1 [M, 4-[(3-ethynyl-phenyl)amino]-6-(1-methyl-piperidin-4-yloxy)-7-methoxy-quinazoline]	0.07 mg/kg
COc1cc2ncnc(Nc3ccc(F)c(Cl)c3)c2cc1O[C@H]1CC[C@@H](N(C)C(=O)C2CCOCC2)CC1 [D, 4-[(3-chloro-4-fluoro-phenyl)amino]-6-(cis-4-{N-[(tetrahydropyran-4-yl)carbonyl]-N-methyl-amino}-cyclohexan-1-yloxy)-7-methoxy-quinazoline]	0.02 mg/kg
COc1cc2ncnc(Nc3ccc(F)c(Cl)c3)c2cc1OC1CCN(CCNC(C)=O)CC1 [C, 4-[(3-chloro-4-fluoro-phenyl)amino]-6-[1-(2-acetylamino-ethyl)-piperidin-4-yloxy]-7-methoxy-quinazoline]	0.03 mg/kg
COCC(=O)N1CCC(Oc2cc3c(Nc4ccc(F)c(Cl)c4)ncnc3cc2OC)CC1 [B, 4-[(3-chloro-4-fluoro-phenyl)amino]-6-{1-[(methoxymethyl)carbonyl]-piperidin-4-yloxy}-7-methoxy-quinazoline]	0.01 mg/kg
C#Cc1cccc(Nc2ncnc3cc(OC)c(OC4CCN(C(=O)OC(C)(C)C)CC4)cc23)c1 [G, 4-[(3-ethynyl-phenyl)amino]-6-[1-(tert.-butyloxycarbonyl)-piperidin-4-yloxy]-7-methoxy-quinazoline]	0.01 mg/kg
COc1cc2ncnc(Nc3ccc(F)c(Cl)c3)c2cc1O[C@H]1CC[C@@H](N(C)C(=O)N2CCCCC2)CC1 [H, 4-[(3-chloro-4-fluoro-phenyl)amino]-6-(cis-4-{N-[(piperidin-1-yl)carbonyl]-N-methyl-amino}-cyclohexan-1-yloxy)-7-methoxy-quinazoline]	0.15 mg/kg
COCCOc1cc2ncnc(Nc3ccc(F)c(Cl)c3)c2cc1OC1CCN(C(=O)N2CCOCC2)CC1 [L, 4-[(3-chloro-4-fluoro-phenyl)amino]-6-{1-[(morpholin-4-yl)carbonyl]-piperidin-4-yloxy}-7-(2-methoxy-ethoxy)-quinazoline]	0.4 mg/kg
COc1cc2ncnc(Nc3ccc(F)c(Cl)c3)c2cc1O[C@H]1CC[C@@H](NC(=O)N2CCOCC2)CC1 [K, 4-[(3-chloro-4-fluoro-phenyl)amino]-6-{cis-4-[(morpholin-4-yl)carbonylamino]-cyclohexan-1-yloxy}-7-methoxy-quinazoline]	0.13 mg/kg

same assay, conditions: rats, intratracheal 0.03 or 0.1 mg/kg daily, 5 days smoke exposure, myeloperoxidase content of lung tissue

Compound	inhibition of the smoke-induced accumulation of granulocytes
COc1cc2ncnc(Nc3ccc(F)c(Cl)c3)c2cc1OC1CCN(C(=O)N2CCOCC2)CC1 [A, 4-[(3-chloro-4-fluoro-phenyl)amino]-6-{1-[(morpholin-4-yl)carbonyl]-piperidin-4-yloxy}-7-methoxy-quinazoline]	significant (p<0.005) inhibition
